From ChEMBL document CHEMBL1201862, “PubChem BioAssay data set” (2004) come the findings set out here.

Molecules are shown by their SMILES.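 Growth conditions: 96-well plates. Treatment: test compound, 48 hours, 5 concentrations. Analysis: linear interpolation between bracketing concentrations; unreached endpoints set to highest concentration. At the GI50, growth is halved.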 Active and inactive are the calls of the source. No stated cut-off is given here; in the data, active = GI50 up to about 1.1 µM and inactive = higher. A value given as a limit tells only on which side of the number the result lay.

Among the test systems are LOX IMVI; ACHN; COLO 205; NCI-H226; SNB-19; NCI/ADR-RES; RPMI-8226; T47D; OVCAR-8; UACC-62; UACC-257; HOP-62; UO-31; U-251; 786-0; HCT-15; MCF7; SR.
Common to all, as to assay: NCI-60 cell line screen, 48 h

For `O=C(NNCC(O)COc1ccccc1)c1ccccc1` (stereo not given), the GI50 in the test with LOX IMVI, in the test on ACHN, in the test with COLO 205, in the test with NCI-H226, in the test on SNB-19 and with NCI/ADR-RES was > 100 µM (inactive) throughout. In addition, the GI50 in the test on RPMI-8226, in the test with T47D, in the test with OVCAR-8, with UACC-62, with UACC-257 and in the test with HOP-62 was > 100 µM (inactive) throughout. The GI50 was > 100 µM (inactive) with UO-31; > 100 µM (inactive) with U-251; > 100 µM (inactive) in the test with 786-0; greater than 100 µM in the test with HCT-15; > 100 µM (inactive) in the test on MCF7.

With `CCCCCCCCCC(=O)CC(=O)c1c(O)cc(O)cc1O`, the GI50 with LOX IMVI is 17.4 µM (inactive); in the test on ACHN it was 27 µM (inactive); in the test on COLO 205, 26.6 µM (inactive); with NCI-H226 it was 16.2 µM (inactive); in the test with SNB-19 it was 22.6 µM (inactive); in the test with NCI/ADR-RES it was 16.6 µM (inactive). The GI50 was 16.1 µM (inactive) in the test with RPMI-8226; 34.7 µM (inactive) in the test on T47D; 17.3 µM (inactive) with OVCAR-8; 23.4 µM (inactive) in the test with UACC-257; 13.6 µM (inactive) in the test on HOP-62; 15.5 µM (inactive) in the test on UO-31. The GI50 with U-251 is 23.8 µM (inactive); with 786-0, 28 µM (inactive); in the test with HCT-15, 18.2 µM; in the test on MCF7, 39.1 µM (inactive).

Take `COP(=O)(OC)/C(=C\c1cn(C(c2ccccc2)(c2ccccc2)c2ccccc2)cn1)NC(C)=O`: the GI50 with LOX IMVI is > 100 µM (inactive); with ACHN it was > 100 µM (inactive); in the test on COLO 205, 84.3 µM (inactive); in the test with NCI-H226, > 100 µM (inactive); in the test with SNB-19, > 100 µM (inactive); with NCI/ADR-RES, > 100 µM (inactive). Also, the GI50 with T47D is > 100 µM (inactive); in the test on OVCAR-8, > 100 µM (inactive); in the test on UACC-62, > 100 µM (inactive); in the test with UACC-257, 62.5 µM (inactive); in the test on SR, 81.8 µM (inactive); in the test on HOP-62, > 100 µM (inactive). Besides, the GI50 in the test with UO-31 is > 100 µM (inactive); in the test with U-251, > 100 µM (inactive); in the test with 786-0 it was > 100 µM (inactive); with HCT-15 it was greater than 100 µM; in the test with MCF7 it was 88.3 µM (inactive).

As to `CCCNc1ncnc2c1ncn2C`, the GI50 in the test on LOX IMVI is 31 µM (inactive); with ACHN, 51.6 µM (inactive); in the test on COLO 205 it was 96.4 µM (inactive); with NCI-H226, > 100 µM (inactive); in the test on SNB-19 it was > 100 µM (inactive); in the test with NCI/ADR-RES it was 68.4 µM (inactive). The GI50 in the test with RPMI-8226 was 20.6 µM (inactive); with T47D it was 44.4 µM (inactive); in the test with OVCAR-8 it was 48.5 µM (inactive); with UACC-62, 45.1 µM (inactive); in the test on UACC-257, > 100 µM (inactive); in the test on HOP-62, 35.2 µM (inactive). Moreover, the GI50 is 85.1 µM (inactive) in the test on UO-31; > 100 µM (inactive) with U-251; 48.8 µM (inactive) in the test on 786-0; 86.9 µM in the test with HCT-15; 53.6 µM (inactive) with MCF7.

Consider `C/C(=N/NC(=S)Nc1ccccc1Cl)c1cccc(/C(C)=N\NC(=S)Nc2ccccc2Cl)n1`, for which the GI50 was 61.8 µM (inactive) in the test on LOX IMVI; 55.5 µM (inactive) with ACHN; 56.8 µM (inactive) with COLO 205; > 100 µM (inactive) in the test on NCI-H226; 82.4 µM (inactive) in the test with SNB-19; > 100 µM (inactive) in the test with NCI/ADR-RES. For the same molecule, the GI50 with RPMI-8226 was > 100 µM (inactive); in the test on T47D, > 100 µM (inactive); in the test on OVCAR-8 it was 11.3 µM (inactive); in the test on UACC-62, > 100 µM (inactive); in the test on UACC-257 it was 67 µM (inactive); in the test on SR, 5.66 µM (inactive). Also, the GI50 is > 100 µM (inactive) in the test on HOP-62; 44 µM (inactive) with UO-31; 26.7 µM (inactive) in the test with U-251; 7.33 µM (inactive) in the test on 786-0; 15 µM in the test with HCT-15; 15.1 µM (inactive) in the test with MCF7.

For `CC(=O)ON(C(C)=O)C1C(COC(c2ccccc2)(c2ccccc2)c2ccccc2)OC2OC3(CCCC3)OC21` (stereo not given), the GI50 with LOX IMVI is 8.18 µM (inactive); with ACHN, 7.66 µM (inactive); in the test on COLO 205, > 23.2 µM (inactive); in the test with NCI-H226, 9.16 µM (inactive); in the test on SNB-19, 5.38 µM (inactive); in the test with RPMI-8226 it was 2.42 µM (inactive). For the same molecule, the GI50 was 5.13 µM (inactive) in the test on OVCAR-8; > 42 µM (inactive) in the test on UACC-62; 11.6 µM (inactive) in the test on UACC-257; 3.2 µM (inactive) with SR; 11.6 µM (inactive) with HOP-62; 5.36 µM (inactive) with UO-31. The GI50 was 6.47 µM (inactive) in the test on U-251, 30.9 µM (inactive) in the test on 786-0 and 4.6 µM in the test on HCT-15.

On to `Nc1ncnc2c1ncn2C1CCC(CP(=O)(O)O)C1` (stereo not given), for which the GI50 in the test on LOX IMVI, in the test with ACHN, with COLO 205, in the test on NCI-H226, in the test on SNB-19 and in the test on NCI/ADR-RES was > 100 µM (inactive) each time. The GI50 with RPMI-8226, in the test on T47D, with OVCAR-8, with UACC-62, in the test with UACC-257 and in the test with HOP-62 was > 100 µM (inactive) each time. For the same molecule, the GI50 is > 100 µM (inactive) with UO-31; > 100 µM (inactive) in the test on U-251; > 100 µM (inactive) in the test with 786-0; greater than 100 µM in the test on HCT-15; > 100 µM (inactive) in the test on MCF7.

For the molecule `CC(=O)c1ccc(Br)cc1NC1=CC(=O)c2ncccc2C1=O`, the GI50 with LOX IMVI is 5.79 µM (inactive); in the test with ACHN, 3.6 µM (inactive); in the test on COLO 205, 3.18 µM (inactive); with NCI-H226, 3.64 µM (inactive); with SNB-19 it was 3.84 µM (inactive); in the test with NCI/ADR-RES, 3.9 µM (inactive). For the same molecule, the GI50 in the test with RPMI-8226 was 2.18 µM (inactive); in the test on T47D, 3.85 µM (inactive); in the test on OVCAR-8, 5.53 µM (inactive); in the test on UACC-62, 2.58 µM (inactive); in the test with UACC-257, 1.48 µM (inactive); in the test on SR it was 2.22 µM (inactive). Further, the GI50 in the test with HOP-62 was 3.47 µM (inactive); with UO-31, 3.86 µM (inactive); in the test on U-251, 6.22 µM (inactive); in the test on 786-0, 3.71 µM (inactive); with HCT-15 it was 2.69 µM; with MCF7, 1.38 µM (inactive).

As to `CCOC(=O)c1c(SCCCN2CCCCC2)n(-c2ccccc2)c(=S)n(-c2ccccc2)c1=O`, the GI50 was 20.6 µM (inactive) with ACHN; 16.4 µM (inactive) with COLO 205; 15.6 µM (inactive) with NCI-H226; 16.7 µM (inactive) with SNB-19; 6.67 µM (inactive) with RPMI-8226; 16.7 µM (inactive) in the test on T47D. In addition, the GI50 with OVCAR-8 is 19.3 µM (inactive); with UACC-62 it was 4.28 µM (inactive); with SR, 22 µM (inactive); with HOP-62, 33 µM (inactive); in the test with UO-31 it was 15.5 µM (inactive); in the test with U-251 it was 16.9 µM (inactive). In addition, the GI50 in the test with 786-0 is 3.87 µM (inactive); in the test with HCT-15, 17.4 µM; in the test on MCF7, 12.1 µM (inactive).
